Article PMC6005348, “Betahistine Treatment in a Cat Model of Vestibular Pathology: Pharmacokinetic and Pharmacodynamic Approaches” (Frontiers in Neurology, 2018)

System: histidine decarboxylase (HDC)
Test: Number of HDC immunoreactive neurons in the tuberomammillary nuclei (immunohistochemistry)
Assay type: in vivo, cat
Procedure: […] animals were used for the immunohistochemical study to label the histamine synthesizing enzyme: the HDC. This study was performed on the same four groups of cats used for the behavioral investigation (cats 10–22). These lesioned animals (left UVN) were all killed 40 days after vestibular lesion. A supplementary group of intact animals (n = 4: cats 23–26) was used as a negative control group without vestibular lesion.
Cats were deeply anesthetized with ketamine dihydrochloride (20 mg/kg, i.m., Rhône Poulenc Mérieux) and perfused under isoflurane intubation (2%), through the ascending aorta, with 1 L of normal saline solution (0.9%) containing 0.1% heparine, and thereafter with 2 L of ice-cold 0.1 M phosphate buffer (PB, pH 7.4) including 4% paraformaldehyde and 0.2% picric acid.
After removal from the skull, the brain was cut into several blocks and post-fixed overnight at 4°C in the same solution. The blocks were then rinsed and cryoprotected by increasing concentrations (10, 20, and 30%) of sucrose solution in 0.1 M PB for 72 h at 4°C. Blocks containing the TMN were rapidly frozen with CO2 gas, and coronal sections 20 μm thick were cut in a cryostat (Leica, Rueil-Malmaison, France).
Free-floating sections were first incubated three times for 5 min in PBS (phosphate buffer saline 0.1 M), then for 1 h in 10% BSA, and 0.25% Triton X-100. Thereafter, sections were incubated under continuous agitation 24 h at 4°C with a Guinea pig polyclonal anti-HDC antiserum (1:1,000 in PBS containing 2% BSA and 0.25% Triton; Fisher scientific). After several rinses (3 × 5 min in PBS with 2% BSA and 3 × 5 min in PBS with 5% BSA) sections were incubated for 1 h, respectively, in biotinylated rabbit anti-guinea pig IgG (1:200 in PBS containing 2% BSA; from Vector Laboratories, Burlingame, CA). […]
The tuberomammillary nuclei (TMN) of the posterior hypothalamus, the sole structure in the brain containing histaminergic neurons, were identified using Berman's stereotaxic atlas ([38]). […] Serial sections in the TMN of each animal were analyzed, five sections at each of the five rostrocaudal levels examined (A12, A11, A10.2, A9.5, and A8.3) being quantified. The number of HDC immunoreactive neurons was quantified by means of a computer-assisted image analysis (DMLB microscope: Leica Microsystems, Wetzlar, Germany) equipped with a DXM 1200 Nikon high-resolution digital camera (1,024 × 1,024 pixels; Nikon, Tokyo, Japan) interfaced to a PC computer employing image software for capturing and processing the images (Lucia G, Nikon, Champigny-sur-Marne, France). Quantification of the immunolabeled neurons was performed via a gray-level method by adjusting a threshold brightness value, and only cells labeled with a gray value above this threshold were taken into account. Reproducibility was assessed by comparing the same data analyzed independently by two researchers blind to the animals' groups. The specific immunolabeling was quantified in each section as the number of labeled neurons, and was automatically computed and evaluated thereafter as the mean (± SEM) for each side, each cat, and each subgroup of cats. To eliminate quantification problems due to potentially asymmetric slides, data were collected from symmetrical slides only, and symmetry was assessed on the basis of the number of cells stained with cresyl violet on each side. […]

[1] = UVN D40, betahistine 2 mg/kg, p < 0.0001

CNCCc1ccccn1 [Betahistine, betahistine]
Number of HDC immunoreactive neurons, ipsilateral TMN (UVN D40, betahistine 0.2 mg/kg without selegiline, UVN untreated 151.78 ± 3.29): 151.3 ± 1.51
Number of HDC immunoreactive neurons, contralateral TMN (UVN D40, betahistine 0.2 mg/kg without selegiline, UVN untreated 152.4 ± 3.63): 151.1 ± 1.63
Number of HDC immunoreactive neurons, contralateral TMN [1]: 191.68 ± 2.04
Number of HDC immunoreactive neurons, ipsilateral TMN [1]: 190.85 ± 1.58
Number of HDC immunopositive neurons on both sides, on average (lesion and betahistine 2 mg/kg, 40 days post-lesion, compared to UVN untreated cats as worded): 210%
